# Measurements published in US20140309309A1, “COSMETIC FORMULATION” (EVONIK INDUSTRIES AG, priority 2011, published 2014).
# Key:
# [1] = test system: differentiated human adipocytes; assay: Gene expression in differentiated human adipocytes (Affymetrix GeneChip); format: cell-based; conditions: 2.5 μM, 6 h, vs vehicle-treated adipocytes
# Method: This example investigated the effect of N-hexanoyl-phytosphingosine on the gene expression in differentiated human adipocytes.
# Cells, media and reagents were acquired from PromoCell. The cultivation was carried out in accordance with the protocol from PromoCell. Unless stated otherwise, the cells were cultivated at 37° C. and 5% CO2. Firstly, proliferating subcutaneous primary human white preadipocytes (HWP) from two different donors were cultivated in a special preadipocyte growth medium until complete confluence was reached. The medium was then exchanged for a special differential medium, and the cells were incubated with this medium for 72 hours. The medium was then exchanged for a further medium (Adipocyte Nutrition Medium) in order to conclude the differentiation process. The cells were further incubated with this medium for twelve days, with media exchange being carried out every three days. Ultimately, the medium was removed from the cells and replaced by fresh medium containing N-hexanoyl-phytosphingosine. The vehicle used was methanol, the end concentration of the vehicle in the medium being 0.05% (v/v). End concentration of N-hexanoyl-phytosphingosine in the medium was 2.5 μM. As the control, the cultivation was carried out without active ingredient, only with medium (vehicle). All of the cultivations were performed twice (with cells from two different donors).
# After cultivation for six hours, the medium was removed and the cells were lysed by adding RNeasy Lysis Buffer (Qiagen). Isolation of whole-RNA was carried out in accordance with manufacturer's instructions. Combined, the whole-RNA was isolated by means of RNeasy Mini Kit (Qiagen). The RNA concentration was determined by spectrophotometry using a SmartSpec Plus (Biorad). Purity and integrity of the RNA were determined using Agilent 2100 Bioanalyzer with a 6000 Nano LabChip reagent set (Agilent Technologies, Inc.). RNA samples were stored at −80° C. until further processing.
# Analysis of the gene expression was carried out using Affymetrix HGU133 plus 2.0 GeneChips (Affymetrix), with 2 μg of whole-RNA being used. For this, the RNA of the two different donor cultures was pooled. Expression analyses including standard data evaluation were carried out in accordance with manufacturer's instructions (Affymetrix.).
# [2] = test system: human dermal fibroblasts; assay: Gene expression in human dermal fibroblasts (Affymetrix GeneChip); format: cell-based; conditions: 5 μM, 24 h, vs vehicle-treated fibroblasts
# Source text: The present example investigates the effect of N-hexanoyl-phytosphingosine on the gene expression in fibroblasts (normal human dermal fibroblasts, NHDFs).
# For this, firstly primary human dermal fibroblasts (human dermal fibroblasts derived from neonatal skin, HDF), cryopreserved, Lifeline Cell Technology, acquired via CellSystems® Biotechnologie Vertrieb GmbH, in Minimum Essential Medium (MEM) with Earle's salts (EMEM) (PAA Laboratories GmbH) were cultivated with the addition of 10% foetal bovine serum (FBS, Invitrogen Ltd, UK), 1% nonessential amino acids (NEAA) (100×) (PAA Laboratories GmbH), 1% L-glutamine (100×) (Invitrogen Ltd) and 1% penicillin/streptomycin (5000 U/mL penicillin and 5000 μg/mL streptomycin/mL, (Invitrogen Ltd) at 37° C. and 5% CO2. For gene expression studies, the cells were sown out in 6-well plates and cultivated to the point of subconfluence (maximum 60%).
# Then, the medium was removed from the cells and replaced by fresh medium containing N-hexanoyl-phytosphingosine. The vehicle used was methanol, the end concentration of the vehicle in the medium being 0.05% (v/v). The end concentration of N-hexanoyl-phytosphingosine in the medium was 5 μM. As the control, the cultivation was carried out without active ingredient, only with medium (vehicle). All of the cultivations were performed twice (with cells from two different donors).
# After cultivation for 24 hours, the medium was removed and the cells were lysed by adding RNeasy Lysis Buffer (Qiagen). Isolation of whole-RNA was carried out in accordance with manufacturer's instructions. Combined, the whole-RNA was isolated by means of RNeasy Mini Kit (Qiagen). The RNA concentration was determined by spectrophotometry using a SmartSpec Plus (Biorad). Purity and integrity of the RNA were determined using Agilent 2100 Bioanalyzer with a 6000 Nano LabChip reagent set (Agilent Technologies, Inc.). RNA samples were stored at −80° C. until further processing.
# Analysis of the gene expression was carried out using Affymetrix HGU133 plus 2.0 GeneChips (Affymetrix), with 2 μg of whole-RNA being used. For this, the RNA of the two different donor cultures was pooled. Expression analyses including standard data evaluation were carried out in accordance with manufacturer's instructions (AFFYMETRIX, INC.).
# [3] = Percutaneous absorption study on a pig skin model; format: in vitro ADME; conditions: 0.2% in formulation in combination with 1.80% 1,2-pentanediol vs corresponding formulations without 1,2-pentanediol (FIG. 4)
# Method: The increase in the skin penetration of N-hexanoyl-phytosphingosine from a cosmetic formulation as a result of adding 1,2-pentanediol was shown in the course of a percutaneous absorption study on a pig skin model. In practice, the study was performed in accordance with a current protocol, as described for example in S. Richert, A. Schrader, K. Schrader, Int. J. Cosmet. Sci. 2003, 25, 5-13.
# [4] = test system: healthy female subjects; assay: Human study, face: echogenicity of the skin (DermaScan C); format: in vivo; conditions: 0.2% by mass in formulation, twice daily
# Source text: (§1) The panel comprises 60 healthy female subjects of Caucasian origin up to 70 years of age who were in their postmenopausal phase (average age 59.4 years). The formulations were applied on the face. Vehicle formulation (vehicle) and N-hexanoyl-phytosphingosine formulation (N-hexanoyl-phytosphingosine) was each applied by 30 subjects. In the case of the non-inventive vehicle formulation, which serves as comparison formulation, the 0.2% by mass of N-hexanoyl-phytosphingosine were replaced by an additional 0.2% by mass of water.
# (§2) Application was carried out twice daily, morning and evening, over a period of twelve weeks. Measurement points were before the start of application (T0), after four weeks (T4), after eight weeks (T8) and after twelve weeks (T12). A period over four weeks is accordingly referred to as T4-T0.
# (§3) The measurements were performed in a temperature- and humidity-controlled room (24±2° C., 50±10 relative humidity). The subjects were requested to apply no product up to twelve hours prior to measurement and to wash their face three hours before measurement.
# The echogenicity of the skin was measured using a DermaScan® C ultrasound scanner. The instrument is based on the physical principle of the ultrasound emission of a transducer. […] Their intensity is detected by a microprocessor. […] The echogenicity was recorded in the B-scan mode and given in %. […]
# [5] = test system: healthy female subjects; assay: Human study, upper arm: echogenicity of the skin (DermaScan C); format: in vivo; conditions: twice daily
# Source text: The panel consisted of healthy female subjects of Caucasian origin up to 70 years old who were in their postmenopausal phase. The echogenicity of the skin on the upper arms of the subjects was at most 60% (DermaScan® C, B-scan mode). The formulations were applied to the upper arms. Vehicle formulation (vehicle) and formulation with different concentrations of N-hexanoyl-phytosphingosine (N-hexanoyl-phytosphingosine) was applied by in each case 16 subjects. In the non-inventive vehicle formulation, which serves as comparison formulation, the corresponding % by mass of N-hexanoyl-phytosphingosine were replaced by additional % by mass of water.
# as §2
# The measurements were performed in a temperature- and humidity-controlled room (24±2° C., 50±10 relative humidity). The subjects were asked to apply no product up to twelve hours before measurement and to no longer wash their arms from three hours before measurement.
# The skin slackening was measured by measuring the echogenicity of the skin by means of a DermaScan® C ultrasound scanner. The echogenicity was recorded in the B-scan mode and given in %. […]
# [6] = test system: healthy female subjects; assay: Human study, face: skin roughness (Primos Pico, Sa parameter); format: in vivo; conditions: 0.2% by mass in formulation, twice daily, entire study period of twelve weeks (FIG. 2)
# Source text: as §1
# Application was carried out twice daily, morning and evening, over a period of twelve weeks. Measurement points were before the start of application (T0), after four weeks (T4), after eight weeks (T8) and after twelve weeks (T12). A period over four weeks is accordingly referred to as T4-T0. […]
# The roughness of the skin was determined by means of Primos Pico optical 3D-Sensor (GF Messtechnik GmbH). […] Bands are projected onto the surface of the skin and the projection is recorded under a defined triangulation angle by means of a CCD camera. The topography of the measured object is calculated by the position of the bands and the grey scales of all registered image points. […] The average roughness Sa was determined; this reflects the arithmetic mean of the skin roughness in the recorded image.
# [7] = test system: healthy female subjects; assay: Human study, face: sagging of the skin assessed by a dermatologist (4-point scale); format: in vivo; conditions: 0.2% by mass in formulation with 1,2-pentanediol, twice daily, twelve weeks, all time points, compared with vehicle group (FIG. 1)
# Source text: as §1, §2, §3
# The sagging of the skin was assessed by a dermatologist by means of visual and tactile evaluation by reference to a 4-point scale (0=absent, 1=minimum, 2=moderate, 3=maximum).
smiles,measurement,setting,value
CCCCCCCCCCCCCC[C@@H](O)[C@@H](O)[C@H](CO)NC(=O)CCCCC [N-hexanoyl-phytosphingosine],Regulation of the gene expression by N-hexanoyl-phytosphingosine: ACACA (acetyl-coenzyme A carboxylase alpha),[1],+1.5 fold
same,Regulation of the gene expression by N-hexanoyl-phytosphingosine: ADIPOQ (adiponectin),[1],+2.2 fold
same,"Regulation of the gene expression by N-hexanoyl-phytosphingosine: CEBPB (CAAT/enhancer binding protein (C/EBP), beta)",[1],+2.1 fold
same,Regulation of the gene expression by N-hexanoyl-phytosphingosine: FAS (fatty acid synthase),[1],+1.4 fold
same,Regulation of the gene expression by N-hexanoyl-phytosphingosine: LEP (leptin),[1],+2.7 fold
same,Regulation of the gene expression by N-hexanoyl-phytosphingosine: LEPR (leptin receptor),[1],+4.1 fold
same,Regulation of the gene expression by N-hexanoyl-phytosphingosine: LIPC (lipase),[1],−2.5 fold
same,"Regulation of the gene expression by N-hexanoyl-phytosphingosine: PPARD (peroxisome proliferator activated receptor, delta)",[1],+1.7 fold
same,"Regulation of the gene expression by N-hexanoyl-phytosphingosine: PPARG (peroxisome proliferator activated receptor, gamma)",[1],+2.5 fold
same,Regulation of the gene expression by N-hexanoyl-phytosphingosine: THBS1 (thrombospondin 1),[1],+5.9 fold
same,Regulation of the gene expression by N-hexanoyl-phytosphingosine: ACAN (aggrecan),[2],+1.7 fold
same,"Regulation of the gene expression by N-hexanoyl-phytosphingosine: COL10A1 (collagen, type X, alpha 1)",[2],+3.2 fold
same,"Regulation of the gene expression by N-hexanoyl-phytosphingosine: COL11A1 (collagen, type XI, alpha 1)",[2],+2.2 fold
same,Regulation of the gene expression by N-hexanoyl-phytosphingosine: FGF18 (fibroblast growth factor 18),[2],+2.2 fold
same,Regulation of the gene expression by N-hexanoyl-phytosphingosine: HAPLN1 (hyaluronan and proteoglycan link protein),[2],+4.1 fold
same,Regulation of the gene expression by N-hexanoyl-phytosphingosine: IGF1 (insulin-like growth factor 1),[2],+2.0 fold
same,Regulation of the gene expression by N-hexanoyl-phytosphingosine: ITGA2 (integrin alpha-2),[2],+1.6 fold
same,Regulation of the gene expression by N-hexanoyl-phytosphingosine: LEP (leptin),[2],+2.2 fold
same,Regulation of the gene expression by N-hexanoyl-phytosphingosine: MMP3 (matrix metallopeptidase 3),[2],−1.4 fold
same,bioavailability (skin penetration) of N-hexanoyl-phytosphingosine from formulation,[3],increase in bioavailability
same,change in the echogenicity of the skin,[4]; after four weeks (T4-T0) (FIG. 3),slight decrease in echogenicity
same,change in the echogenicity of the skin,[4]; as the study progressed (to T12) (FIG. 3),steadily improved
same,echogenicity of the skin on the upper arm compared with the starting value,"[5]; 0.02% in formulation, increase only measurable after a treatment time of eight weeks (FIG. 5)",less marked
same,echogenicity of the skin on the upper arm compared with the starting value,"[5]; 0.05% in formulation, four, eight and twelve weeks (FIG. 5)",increase in the echogenicity of the skin
same,change in skin roughness (Sa parameter),[6],steadily further reduced
same,decrease in sagging of the skin,[7],more marked
